Source: article PMC8175851, “Effects of Genetic Polymorphism in CYP2D6, CYP2C19, and the Organic Cation Transporter OCT1 on Amitriptyline Pharmacokinetics in Healthy Volunteers and Depressive Disorder Patients” (Frontiers in Pharmacology, 2021)
“And” between values parts separate entries of the source, which are not always exact repeats. Equal entries are not always repeated. Where two headings read alike, the source gives them in different places.

Assays:
[1] = Plasma concentrations per dose unit of AT and NT in depressive disorder patients (75 mg AT twice daily); format: in vivo, human; settings: 12-hour-trough levels
Method: Briefly, 75 mg AT was administered twice daily at 12 h dosing intervals. Any drugs or dietary ingredients that might interfere with CYP2D6 or CYP2C19 metabolism were avoided whenever possible. Blood samples (12-hour-trough levels) were taken on days 0, 7, 14, 18, and 21, centrifuged, and stored at 4°C for genotyping (CYP2D6 and CYP2C19) and concentration analyses. The blood samples were subsequently stored at −20°C and later genotyped for OCT1.
The serum concentrations in depressive disorder patients were determined either by the Emit® immunoassay specific for AT and NT or a commercial high-performance liquid chromatography assay (Bio-Rad Laboratories GmbH, Feldkirchen, Germany), as described before ([Steimer et al., 2004]; [Steimer et al., 2005]).
The correlation between AT and NT plasma AUC (study in healthy volunteers) or mean plasma concentration per dose unit (study in depressive disorder patients) and OCT1, CYP2D6, and CYP2C19 genotypes were calculated using the Jonckheere-Terpstra non-parametric analysis, which takes into consideration the a priori ordering (or trend) in gene activities from zero to normal to ultra-rapid (for CYP2C19 and CYP2D6). To do so, the genotypes were categorized into 0, 1, or 2 active alleles for OCT1, into 0, 0.5, 1, 1.5, 2, 2.5, or 3 active alleles for CYP2D6, and into 0, 1, 1.5, 2, 2.5, or 3 active alleles for CYP2C19, depending on their known effects on transporter/enzyme activity. OCT1 alleles *2, *3, *4, *5 were classified as being zero active. […] A semi-quantitative gene dosage was calculated for CYP2D6, as has been described earlier ([Steimer et al., 2004]). For calculating a CYP2C19 activity score, CYP2C19*2 was regarded as zero active, CYP2C19*1 was classified as 1, and CYP2C19*17 as 1.5. Additional multiple linear regression analyses included sex, age, body mass index, and glomerular filtration rate.

[2] = Pharmacokinetics of AT and NT in healthy volunteers after a single dose of 25 mg amitriptyline; format: in vivo, human; settings: for AUC(0-inf) / AUC(0-t) / Cmax / Tmax / half-life: both sexes, human, plasma, po, 25 mg, single oral 25 mg AT; for AUC(0-t): read-out: AUC48h; for Cmax: read-out: Cmax
Text: In order to enrich the study sample with the less frequent functionally deficient OCT1 variants, participants were selected based on OCT1 genotype from an internal database at the Institute of Clinical Pharmacology of the University Medical Center Göttingen. All volunteers who are listed in the internal database had agreed to it and the database was approved by the ethics committee of the University of Göttingen. […] Additional subjects with heterozygous genotypes were included to provide a better understanding of the effects of specific variants and the mode of inheritance. All volunteers gave their written informed consent before participation in the study. The study was approved by the ethics committee of the University of Göttingen and the German Federal Institute for Drugs and Medical Devices (BfArM). It was registered at the clinical trials databases Clinicaltrials.gov (NCT02054299) and EudraCT (number 2012-003546-33). […] Volunteers who underwent regular drug treatments other than oral contraceptives or who suffered from any relevant chronic illness, as well as pregnant or lactating women, were not included. All subjects were healthy according to a detailed medical history, medical examination, electrocardiogram, urine status and clinical chemistry, and haematology parameters (sodium, potassium, total bilirubin, aspartate aminotransferase, alanine-aminotransferase, creatinine, C-reactive protein, thyroid-stimulating hormone, haemoglobin, erythrocyte, thrombocyte, and leucocyte counts). […] After centrifugation (13,000 rpm, 15 min, room temperature), two-thirds of the supernatant were transferred to a new reaction tube and evaporated at 40°C under nitrogen flow. The residue was reconstituted under shaking in 0.1% methanoic acid and briefly centrifuged before quantification using a Nexera UHPLC system (Shimadzu, Kyoto, Japan) coupled to an API 4000 tandem mass spectrometer (AB Sciex, Darmstadt, Germany). […] PerkinElmer, Rodgau, Germany) with a Phenomenex C18 pre-column (4 × 2 mm, Phenomenex, Aschaffenburg, Germany). […] The lower limit of quantification was 0.5 ng/ml for AT and 0.1 ng/ml for NT. […] The mass spectrometry detection parameters are listed in Supplementary Table S1. For the study in healthy volunteers, the primary endpoints were the AUCs of plasma AT and NT concentrations. Secondary endpoints were the other pharmacokinetic parameters of AT and NT, as well as heart rate, blood pressure, pupil size effects, and possible adverse events (headache, fatigue, visual or hearing impairments, restlessness, nausea, dizziness, dry mouth, tremor, as well as sensations of hypothermia and heart palpitations determined using a visual analogue scale test). Pharmacokinetic parameters were calculated by non-compartmental analysis using Phoenix 64 WinNonlin version 6.3 (Certara Inc., Princeton, NJ, United States). AUCinf of AT was calculated from the time of dosing using the linear/log trapezoidal rule and extrapolated to infinity based on the last predicted concentration and using the terminal elimination rate constant (lambda z). AUC of NT was calculated from the time of dosing until the last measurement at 48 h using the linear/log trapezoidal rule, as a decline in NT concentrations was not observed in some subjects and extrapolation to infinity thus not possible.

[3] = healthy volunteers, 0 active OCT1 alleles (n = 12)
[4] = healthy volunteers, 1 active OCT1 allele (n = 9)
[5] = healthy volunteers, 2 active OCT1 alleles (n = 14)
[6] = healthy volunteers, CYP2C19 activity score 1 (n = 5), mean
[7] = healthy volunteers, CYP2C19 activity score 1.5 (n = 2), mean
[8] = healthy volunteers, CYP2C19 activity score 2 (n = 16), mean
[9] = healthy volunteers, CYP2C19 activity score 2.5 (n = 10), mean
[10] = healthy volunteers, CYP2D6 activity 0 (n = 3), mean
[11] = healthy volunteers, CYP2D6 activity 0.5 (n = 2), mean
[12] = healthy volunteers, CYP2D6 activity 1 (n = 10), mean
[13] = healthy volunteers, CYP2D6 activity 1.5 (n = 6), mean
[14] = healthy volunteers, CYP2D6 activity 2 (n = 11), mean
[15] = healthy volunteers, CYP2D6 activity 2.5 (n = 1), mean
[16] = healthy volunteers, CYP2D6 activity 3 (n = 2), mean

Mean plasma concentration per dose unit ([1]; OCT1 genotype *1 / *1 (n 27), mean ± standard deviation): 37.3 ± 15.9
Mean plasma concentration per dose unit ([1]; OCT1 genotype *1 / *2 (n 14), mean ± standard deviation): 44.0 ± 15.2
Mean plasma concentration per dose unit ([1]; OCT1 genotype *1 / *3 (n 2), mean ± standard deviation): 56.9 ± 36.0
Mean plasma concentration per dose unit ([1]; OCT1 genotype *1 / *4 (n 1)): 38.7
Mean plasma concentration per dose unit ([1]; OCT1 genotype *2 / *2 (n 3), mean ± standard deviation): 47.6 ± 15.4
Mean plasma concentration per dose unit ([1]; OCT1 genotype *2 / *3 (n 2), mean ± standard deviation): 52.6 ± 31.9
Mean plasma concentration per dose unit ([1]; OCT1 genotype *3 / *3 (n 1)): 53.9
maximum concentration of unbound AT in the portal vein (estimated) ([2]; based on the calculations by Ahlin et al. and Ito et al., listed as AT): 745.9 µg/L and 2.69 µM
AUC(0-inf) ([2]; 35 healthy volunteers, read-out: AUCinf (range over all volunteers)): 110 to 430 ng·h/mL
AUC(0-t) [2, 3]: 162 ± 40.5 ng·h/mL
AUC(0-inf) ([2]; healthy volunteers, 0 active OCT1 alleles (n = 12), read-out: AUCinf): 199 ± 60 ng·h/mL
Cmax [2, 3]: 9.9 ± 3.9 ng/mL
AUC(0-t) [2, 4]: 184 ± 56 ng·h/mL
AUC(0-inf) ([2]; healthy volunteers, 1 active OCT1 allele (n = 9), read-out: AUCinf): 228 ± 72.4 ng·h/mL
Cmax [2, 4]: 10.5 ± 3.3 ng/mL
AUC(0-t) [2, 5]: 194 ± 66.3 ng·h/mL
AUC(0-inf) ([2]; healthy volunteers, 2 active OCT1 alleles (n = 14), read-out: AUCinf): 243 ± 87.5 ng·h/mL
Cmax [2, 5]: 11.6 ± 4 ng/mL
AUC(0-t) [2, 6]: 183 ng·h/mL
AUC(0-inf) ([2]; healthy volunteers, CYP2C19 activity score 1 (n = 5), mean, read-out: AUCinf): 231 ng·h/mL
Cmax [2, 6]: 11.1 ng/mL
AUC(0-t) [2, 7]: 256 ng·h/mL
AUC(0-inf) ([2]; healthy volunteers, CYP2C19 activity score 1.5 (n = 2), mean, read-out: AUCinf): 317 ng·h/mL
Cmax [2, 7]: 16.2 ng/mL
AUC(0-t) [2, 8]: 172 ng·h/mL
AUC(0-inf) ([2]; healthy volunteers, CYP2C19 activity score 2 (n = 16), mean, read-out: AUCinf): 210 ng·h/mL
Cmax [2, 8]: 10.5 ng/mL
AUC(0-t) [2, 9]: 171 ng·h/mL
AUC(0-inf) ([2]; healthy volunteers, CYP2C19 activity score 2.5 (n = 10), mean, read-out: AUCinf): 211 ng·h/mL
Cmax [2, 9]: 9.5 ng/mL
AUC(0-t) [2, 10]: 236 ng·h/mL
AUC(0-inf) ([2]; healthy volunteers, CYP2D6 activity 0 (n = 3), mean, read-out: AUCinf): 311 ng·h/mL
Cmax [2, 10]: 10.9 ng/mL
AUC(0-t) [2, 11]: 166 ng·h/mL
AUC(0-inf) ([2]; healthy volunteers, CYP2D6 activity 0.5 (n = 2), mean, read-out: AUCinf): 214 ng·h/mL
Cmax [2, 11]: 12.7 ng/mL
AUC(0-t) [2, 12]: 199 ng·h/mL
AUC(0-inf) ([2]; healthy volunteers, CYP2D6 activity 1 (n = 10), mean, read-out: AUCinf): 251 ng·h/mL
Cmax [2, 12]: 11.9 ng/mL
AUC(0-t) [2, 13]: 184 ng·h/mL
AUC(0-inf) ([2]; healthy volunteers, CYP2D6 activity 1.5 (n = 6), mean, read-out: AUCinf): 226 ng·h/mL
Cmax [2, 13]: 10.3 ng/mL
AUC(0-t) [2, 14]: 162 ng·h/mL
AUC(0-inf) ([2]; healthy volunteers, CYP2D6 activity 2 (n = 11), mean, read-out: AUCinf): 196 ng·h/mL
Cmax [2, 14]: 10 ng/mL
AUC(0-t) [2, 15]: 142 ng·h/mL
AUC(0-inf) ([2]; healthy volunteers, CYP2D6 activity 2.5 (n = 1), mean, read-out: AUCinf): 158 ng·h/mL
Cmax [2, 15]: 7 ng/mL
AUC(0-t) [2, 16]: 130 ng·h/mL
AUC(0-inf) ([2]; healthy volunteers, CYP2D6 activity 3 (n = 2), mean, read-out: AUCinf): 157 ng·h/mL
Cmax [2, 16]: 10.2 ng/mL
Tmax [2, 3]: 3.4 ± 1.6 h
half-life [2, 3]: 20.3 ± 3.8 h
Tmax [2, 4]: 3.1 ± 1 h
half-life [2, 4]: 20.5 ± 3.9 h
Tmax [2, 5]: 2.9 ± 1.4 h
half-life [2, 5]: 21 ± 4 h
Tmax [2, 6]: 2.6 h
half-life [2, 6]: 21.6 h
Tmax [2, 7]: 2 h
half-life [2, 7]: 20.3 h
Tmax [2, 8]: 3.2 h
half-life [2, 8]: 20.1 h
Tmax [2, 9]: 3.6 h
half-life [2, 9]: 19.8 h
Tmax [2, 10]: 3.4 h
Compound: CN(C)CCC=C1c2ccccc2CCc2ccccc21 [Amitriptyline, amitriptyline]
